Experimental data: US6706740B2, “Fungicidal heterocyclic aromatic amides and their compositions, methods of use and preparation” (Dow AgroSciences LLC, priority 1999, dated 2004)
Where two headings read alike, the source gives them in different places.

Assays:
[1] = test system: Ustilago maydis (USTIMA); experiment: microbe, parasite or virus in culture; format: cell-based; details: Mycosarcoma maydis, read-out: USTIMA in vitro Growth Inhibition
[2] = test system: Puccinia recondita—PUCCRT; experiment: Brown Rust of Wheat, in vivo whole plant, 24 Hour Protectant; details: for pest or weed control at 100 ppm: Puccinia, read-out: PUCCRT in vivo 1 Day Protectant
[3] = test system: Mycosphaerella graminicola (Septoria tritici—SEPTTR); experiment: In vitro fungal growth inhibition, Mycosphaerella graminicola (SEPTTR); format: cell-based; details: Zymoseptoria tritici, read-out: SEPTTR in vitro Growth Inhibition
[4] = test system: Stagonospora nodorum (Leptosphaeria nodorum—LEPTNO); experiment: In vitro fungal growth inhibition, Stagonospora nodorum (LEPTNO); format: cell-based; details: Leptosphaeria, read-out: LEPTNO in vitro Growth Inhibition
[5] = test system: Phytophthora infestans (PHYTIN); experiment: microbe, parasite or virus in culture; format: cell-based; details: Phytophthora infestans, read-out: PHYTIN in vitro Growth Inhibition
[6] = test system: Leptosphaeria nodorum—LEPTNO; experiment: Glume Blotch of Wheat, in vivo whole plant, 24 Hour Protectant; details: for pest or weed control at 100 ppm: Leptosphaeria, read-out: LEPTNO in vivo 1 Day Protectant
[7] = test system: Erysiphe graminis—ERYSGT; experiment: Powdery Mildew of Wheat, in vivo whole plant, 24 Hour Protectant; details: for pest or weed control at 100 ppm: Erysiphe, read-out: ERYSGT in vivo 1 Day Protectant
[8] = test system: Rhizoctonia solani (RHIZSO); experiment: microbe, parasite or virus in culture; format: cell-based; details: Rhizoctonia solani, read-out: RHIZSO in vitro Growth Inhibition
[9] = test system: Magnaporthe grisea (Pyricularia oryzae—PYRIOR); experiment: microbe, parasite or virus in culture; format: cell-based; details: Pyricularia oryzae, read-out: PYRIOR in vitro Growth Inhibition
[10] = test system: Septoria tritici—SEPTTR; experiment: Leaf Blotch of Wheat, in vivo whole plant, 24 Hour Protectant; details: for pest or weed control at 100 ppm: Zymoseptoria tritici, 24 h, read-out: SEPTTR in vivo 1 Day Protectant
[11] = test system: Phytophthora infestans—PHYTIN; experiment: whole plant or invertebrate; format: in vivo; details: Phytophthora, in Solanum lycopersicum, 24 h, read-out: PHYTIN in vivo 1 Day Protectant
[12] = wheat plants sprayed at 100 ppm, inoculated after 24 hours, control of fungal infection vs untreated plants
[13] = 100 ppm spray, wheat, 24 hour protectant, control of fungal infection vs untreated plants
[14] = 100 ppm spray, wheat, 24 hour protectant, % control of fungal infection vs untreated plants
[15] = 100 ppm spray, 24 hour protectant, wheat, control of fungal infection vs untreated plants

Cc1ncc(C(=O)NC2CC(C)(C)CC(C)(C)C2)c(O)n1 [Compound 541]
inhibition at 25 ppm [1]: < 80%
pest or weed control at 100 ppm [2, 12]: < 25%
inhibition at 25 ppm ([3]; 25 ppm in the growth medium): < 80%
inhibition at 25 ppm ([4]; 25 ppm in the growth medium): < 80%
inhibition at 25 ppm [5]: < 80%
pest or weed control at 100 ppm [6, 12]: < 25%
pest or weed control at 100 ppm [7, 12]: < 25%
inhibition at 25 ppm [8]: < 80%
melting point: > 300 °C
inhibition at 25 ppm [9]: < 80%
pest or weed control at 100 ppm [10, 12]: 25 to 74%
pest or weed control at 100 ppm [11]: < 25%

CC1(C)CC(NC(=O)c2conc2O)CC(C)(C)C1 [Compound 560]
inhibition at 25 ppm [1]: < 80%
pest or weed control at 100 ppm [2, 12]: 25 to 74%
inhibition at 25 ppm ([3]; 25 ppm in the growth medium): < 80%
inhibition at 25 ppm ([4]; 25 ppm in the growth medium): < 80%
inhibition at 25 ppm [5]: < 80%
pest or weed control at 100 ppm [6, 12]: 25 to 74%
pest or weed control at 100 ppm [7, 12]: < 25%
inhibition at 25 ppm [8]: < 80%
melting point: 186 to 188 °C
inhibition at 25 ppm [9]: < 80%
pest or weed control at 100 ppm [10, 12]: 25 to 74%
pest or weed control at 100 ppm [11]: < 25%

COc1ccnc(C(=O)NC2COC(=O)C[C@H](NC(=O)OCc3ccccc3)C(=O)OC2)c1O (stereo partly drawn) [Compound 376]
inhibition at 25 ppm [1]: < 80%
pest or weed control at 100 ppm [2, 13]: < 25%
inhibition at 25 ppm ([3]; 25 ppm in growth medium): < 80%
inhibition at 25 ppm ([4]; 25 ppm in growth medium): < 80%
inhibition at 25 ppm [5]: < 80%
pest or weed control at 100 ppm [6, 13]: 25 to 74%
pest or weed control at 100 ppm [7, 13]: 25 to 74%
inhibition at 25 ppm [8]: < 80%
melting point: 190 to 192 °C
inhibition at 25 ppm [9]: < 80%
pest or weed control at 100 ppm [10, 13]: 25 to 74%
pest or weed control at 100 ppm [11]: < 25%

COc1ccnc(C(=O)Nc2ccc(Sc3cccc(C(F)(F)F)c3)cc2)c1OC(C)=O [Compound 711]
inhibition at 25 ppm [1]: < 80%
pest or weed control at 100 ppm [2, 14]: < 25%
inhibition at 25 ppm ([3]; 25 ppm in growth medium): > 80%
inhibition at 25 ppm ([4]; 25 ppm in growth medium): > 80%
inhibition at 25 ppm [5]: < 80%
pest or weed control at 100 ppm [6, 14]: 25 to 74%
pest or weed control at 100 ppm [7, 14]: < 25%
inhibition at 25 ppm [8]: < 80%
melting point: 134 to 136 °C
inhibition at 25 ppm [9]: > 80%
SEPTTR in vivo 1 Day Protectant [10, 14]: + +
pest or weed control at 100 ppm [11]: < 25%

COCCC(=O)Oc1c(OC)ccnc1C(=O)Nc1ccc(C(=O)c2cccc(C(F)(F)F)c2)cc1 [Compound 706]
inhibition at 25 ppm [1]: < 80%
pest or weed control at 100 ppm [2, 14]: < 25%
inhibition at 25 ppm ([3]; 25 ppm in growth medium): < 80%
inhibition at 25 ppm ([4]; 25 ppm in growth medium): > 80%
inhibition at 25 ppm [5]: < 80%
pest or weed control at 100 ppm [6, 14]: 25 to 74%
pest or weed control at 100 ppm [7, 14]: < 25%
inhibition at 25 ppm [8]: < 80%
melting point: 158 to 160 °C
inhibition at 25 ppm [9]: < 80%
pest or weed control at 100 ppm [10, 14]: 25 to 74%
pest or weed control at 100 ppm [11]: < 25%

COc1ccnc(C(=O)NC2CC(C)(C)C(OC(=O)c3cccc(Cl)n3)C(C)(C)C2)c1O (stereo not drawn) [Compound 269]
inhibition at 25 ppm [1]: < 80%
pest or weed control at 100 ppm [2, 15]: 25 to 74%
inhibition at 25 ppm ([3]; 25 ppm in growth medium): < 80%
inhibition at 25 ppm ([4]; 25 ppm in growth medium): < 80%
inhibition at 25 ppm [5]: < 80%
pest or weed control at 100 ppm [6, 15]: < 25%
pest or weed control at 100 ppm [7, 15]: < 25%
inhibition at 25 ppm [8]: < 80%
melting point: 55 to 65 °C
inhibition at 25 ppm [9]: < 80%
pest or weed control at 100 ppm [10, 15]: 25 to 74%
pest or weed control at 100 ppm [11]: < 25%

COCCC(=O)Oc1c(OC)ccnc1C(=O)N[C@H]1COC(=O)[C@H](Cc2ccccc2)[C@@H](OC(=O)C(C)(C)C)[C@H](C)OC1=O [Compound 703]
inhibition at 25 ppm [1]: < 80%
PUCCRT in vivo 1 Day Protectant [2, 14]: + +
inhibition at 25 ppm ([3]; 25 ppm in growth medium): < 80%
inhibition at 25 ppm ([4]; 25 ppm in growth medium): > 80%
inhibition at 25 ppm [5]: < 80%
LEPTNO in vivo 1 Day Protectant [6, 14]: + +
ERYSGT in vivo 1 Day Protectant [7, 14]: + +
inhibition at 25 ppm [8]: < 80%
melting point: 144 to 145 °C
inhibition at 25 ppm [9]: < 80%
SEPTTR in vivo 1 Day Protectant [10, 14]: + +
pest or weed control at 100 ppm [11]: < 25%

CSc1nnc(C(=O)NC2CCCCCCC2)c(O)n1 [Compound 546]
inhibition at 25 ppm [1]: < 80%
pest or weed control at 100 ppm [2, 12]: 25 to 74%
inhibition at 25 ppm ([3]; 25 ppm in the growth medium): < 80%
inhibition at 25 ppm ([4]; 25 ppm in the growth medium): < 80%
inhibition at 25 ppm [5]: > 80%
pest or weed control at 100 ppm [6, 12]: 25 to 74%
pest or weed control at 100 ppm [7, 12]: < 25%
inhibition at 25 ppm [8]: < 80%
melting point: 208 to 213 °C
inhibition at 25 ppm [9]: < 80%
pest or weed control at 100 ppm [10, 12]: 25 to 74%
pest or weed control at 100 ppm [11]: < 25%
